These results are taken from the NIST ThermoML archive (doi:10.1016/j.fluid.2011.09.014).

Data set [1] is described as follows: xn = mol fraction of the nth substance listed. Particulars: 293.15 K; 101 kPa; Liquid; Vibrating tube method; x2 = 0.75.
Data set [2] in a line: refractive index (Na D-line) (dimensionless); xn = mol fraction of the nth substance listed. Particulars: 294.15 K; 101 kPa; Liquid; Standard Abbe refractometry; x2 = 0.75.
For data set [3] the following is noted: Liquid; for mass density: 101.33 kPa, Vibrating tube method; for Normal boiling temperature: Closed cell (Static) method.
The nature of data set [4]: refractive index (Na D-line) (dimensionless). Particulars: 101.33 kPa, Liquid, Standard Abbe refractometry.

Each structure is given as a SMILES string. Numbers after ± are expanded uncertainties.

For `CC(=O)CC(C)CC(C)C` (configuration not stated) [4,6-dimethyl-2-heptanone] + CC(C)CC(=O)CC(C)C, the mass density in data set [1] is reported as 806.5 ± 0.5 kg/m3. In addition, in data set [2], the refractive index is on record as 1.4118 ± 0.0005.
`CC(=O)O` [acetic acid]: in data set [3] (298.15 K), the mass density is 1044.5 ± 0.6 kg/m3. Also, in data set [3], the Normal boiling temperature was 117.90 ± 0.2 °C. Also, the refractive index in data set [4] (293.15 K) is listed as 1.3721 ± 0.0004.
For the compound `CC(C)OC(C)C` [diisopropyl ether], in data set [3] (298.15 K), the mass density worked out at 719 ± 0.4 kg/m3. Also, in data set [3], the Normal boiling temperature amounted to 68.20 ± 0.2 °C. Further, the refractive index in data set [4] (298.15 K) turned out to be 1.3655 ± 0.0004.
On to `O=CO` [formic acid], for which, in data set [3] (293.15 K), the mass density came to 1218.5 ± 1.4 kg/m3. The Normal boiling temperature in data set [3] is 100.90 ± 0.2 °C. Further, the refractive index in data set [4] (293.15 K) is recorded as 1.3711 ± 0.0006.
Consider `CCCCCOC(C)=O` [pentyl ethanoate], for which the mass density in data set [3] (293.15 K) came out at 875.9 ± 0.8 kg/m3. Moreover, in data set [3], the Normal boiling temperature came out at 149.10 ± 0.2 °C. The refractive index in data set [4] (293.15 K) is given as 1.4025 ± 0.0006.
With `CCC(=O)O` [propanoic acid], the mass density in data set [3] (298.15 K) is given as 988.1 ± 0.5 kg/m3. Moreover, in data set [3], the Normal boiling temperature came to 141.10 ± 0.2 °C. Further, in data set [4] (293.15 K), the refractive index is 1.3808 ± 0.0004.

The mass density is the mass of a sample divided by its volume. In general, refractive index refers to the speed of light in vacuum divided by its phase velocity in the sample.
